Assay [1] has as its target T1, PRMT5-MEP50 enzyme (Homo sapiens, UniProt O14744).
T1 construct: One virus expresses full length human PRMT5 with Flag-tag at N-terminus
The experiment in a line: In vitro assay (Assay 1): PRMT5-MEP50 high throughput mass spectrometer assay, inhibition of SAH formation. It counts as biochemical. The following applies: individual measurements shown, read-out: pIC50 Assay 1 (converted). The gist of the method: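 Flag-PRMT5/His-MEP50 full-length human complex (Sf9-expressed), 10 nM, with 1 μM SAM and 0.3 μM histone H2A in 20 mM Tris-HCl pH 8.5, 50 mM NaCl, 5 mM MgCl2, 1 mM DTT; 60 min at 30 °C, quenched with 1% formic acid. SAH quantified by RapidFire MS; IC50 from 11-point 1:2 series fitted to four-parameter Hill equation.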

For assay [2], the system named is A549 cells. The experiment in a line: PD assay (Assay 2): inhibition of nuclear symmetric Arginine dimethylation (SYM10 immunohistochemistry) in A549 cells. Format: cell-based. Particulars: individual measurements shown; for IC50: Homo sapiens, A549, PD assay in A549 cells, read-out: pIC50 Assay 2 (converted); for pIC50 Assay 2: PD assay in A549 cells. The gist of the method:
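A549 cells dosed with a nine-point series (0.2% DMSO) for 48 h at 37° C, then fixed and immunostained with SYM10 anti-symmetric-dimethylarginine antibody, plus Hoechst and CellMask counterstains for high-content imaging. Nuclear signal normalized between DMSO and 10 μM reference-compound controls to derive IC50/pIC50.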

“And” between values parts separate entries of the source, which are not always exact repeats. Equal entries are not always repeated. Bounds are passed on as bounds.

T1 sequence (O14744 whole entry): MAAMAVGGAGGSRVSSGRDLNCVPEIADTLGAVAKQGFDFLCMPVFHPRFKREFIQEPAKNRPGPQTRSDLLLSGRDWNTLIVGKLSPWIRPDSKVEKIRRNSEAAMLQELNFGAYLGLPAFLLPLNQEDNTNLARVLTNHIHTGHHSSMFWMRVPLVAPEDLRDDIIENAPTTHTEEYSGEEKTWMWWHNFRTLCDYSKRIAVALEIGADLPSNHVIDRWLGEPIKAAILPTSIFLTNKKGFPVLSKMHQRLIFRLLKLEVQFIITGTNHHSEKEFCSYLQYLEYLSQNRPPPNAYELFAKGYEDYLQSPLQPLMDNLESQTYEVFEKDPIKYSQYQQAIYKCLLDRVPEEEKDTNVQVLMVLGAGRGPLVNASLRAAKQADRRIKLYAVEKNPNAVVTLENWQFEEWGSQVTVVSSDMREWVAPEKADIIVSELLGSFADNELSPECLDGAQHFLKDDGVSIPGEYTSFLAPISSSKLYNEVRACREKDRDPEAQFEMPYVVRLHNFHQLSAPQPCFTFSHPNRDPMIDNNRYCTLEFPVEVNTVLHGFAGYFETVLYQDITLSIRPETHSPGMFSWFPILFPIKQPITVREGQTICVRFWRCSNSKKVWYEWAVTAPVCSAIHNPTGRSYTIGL
T1 sequence (Q9BQA1 whole entry partner): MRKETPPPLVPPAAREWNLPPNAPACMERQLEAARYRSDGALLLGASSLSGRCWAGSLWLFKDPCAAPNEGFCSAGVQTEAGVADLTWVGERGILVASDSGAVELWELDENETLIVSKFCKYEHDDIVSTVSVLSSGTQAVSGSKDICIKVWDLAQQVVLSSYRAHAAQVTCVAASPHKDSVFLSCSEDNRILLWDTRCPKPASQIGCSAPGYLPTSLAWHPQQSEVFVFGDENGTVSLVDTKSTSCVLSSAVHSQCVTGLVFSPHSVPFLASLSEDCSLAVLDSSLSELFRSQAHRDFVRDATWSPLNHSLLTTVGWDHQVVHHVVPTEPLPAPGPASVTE

As for `CC(C)C(=O)O[C@@H]1[C@H](OC(=O)C(C)C)[C@@H](CN2CCCC23CCNCC3)O[C@H]1n1ccc2c(N)ncnc21` [Compound 94], the IC50 in assay [1] was > 10000 nM; in assay [2], ~50.1 nM.

For the compound `CC(C)C(=O)O[C@@H]1[C@H](OC(=O)C(C)C)[C@@H](CN2CCCC23CCN(C)CC3)O[C@H]1n1ccc2c(N)ncnc21` [Compound 95a], in assay [1], the IC50 was > 10000 nM. Moreover, the “pIC50 Assay 2” value in assay [2] was 6.94 and 6.95.

With `CC(C)C(=O)O[C@@H]1[C@H](OC(=O)C(C)C)[C@@H](CN2CCCC23CCN(C)CC3)O[C@H]1n1ccc2c(N)ncnc21` [Compound 95b], the IC50 in assay [1] is > 100000 nM. The “pIC50 Assay 2” value in assay [2] is ~7.34 and 7.05.

As to `CC(C)C(=O)O[C@H]1[C@@H](O)[C@H](n2ccc3c(N)ncnc32)O[C@@H]1CN1CCCC12CCN(C)CC2` [Compound 96], the figures for the IC50 in assay [1] and in assay [2] were 631 nM and 20.4 nM, respectively.

As to `CC(=O)O[C@H]1[C@@H](O)[C@H](n2ccc3c(N)ncnc32)O[C@@H]1CN1CCCC12CCN(C)CC2` [Compound 99], the IC50 in assay [1] was 174 nM; in assay [2], 204 nM.

Regarding `CC(C)C(=O)O[C@@H]1[C@H](OC(=O)C(C)C)[C@@H](CN2CC(F)(F)CC23CCN(C)CC3)O[C@H]1n1ccc2c(N)ncnc21` [Compound 103], the IC50 in assay [1] was > 10000 nM. The “pIC50 Assay 2” value in assay [2] is given as 6.46.

Regarding `CC(C)C(=O)O[C@@H]1[C@H](OC(=O)C(C)C)[C@@H](CN2CCCC23CCN(C)CC3)O[C@H]1c1ccc2c(N)ncnn12` [Compound 104], the IC50 is > 10000 nM in assay [1] and 1580 nM in assay [2].

Regarding `CC(C)C(=O)O[C@@H]1[C@H](OC(=O)C(C)C)[C@@H](CN2CC(F)(F)CC23CCN(C)CC3)O[C@H]1c1ccc2c(N)ncnn12` [Compound 105], the figures for the IC50 in assay [1] and in assay [2] were > 10000 nM and 6610 nM, respectively.

`CC(C)C(=O)O[C@@H]1[C@@H](CN2CC(F)(F)CC23CCN(C)CC3)C[C@@H](n2ccc3c(N)ncnc32)[C@@H]1OC(=O)C(C)C` [Compound 106]: the IC50 in assay [1] is > 10000 nM; in assay [2], 19500 nM.

With `CC(C)C(=O)O[C@@H]1[C@H](OC(=O)C(C)C)[C@@H](CN2CC(F)(F)CC23CCNCC3)O[C@H]1c1ccc2c(N)ncnn12` [Compound 107], the IC50 in assay [1] is > 10000 nM; in assay [2] it was 126 nM.

For the compound `Nc1ncnc2c1ccn2[C@@H]1O[C@H](CN2CCOCC23CCNCC3)[C@@H](O)[C@H]1O` [Compound 108], the IC50 in assay [1] was 25.7 nM; in assay [2], 204 nM.

With `Nc1ncnn2c([C@@H]3O[C@H](CN4CCOC5(CNC5)C4)[C@@H](O)[C@H]3O)ccc12` [Compound 109], the values for the IC50 in assay [1] and in assay [2] were 2240 nM and > 10000 nM, respectively.

As to `Nc1ncnc2c1ccn2[C@@H]1O[C@H](CN2CCC23CCNCC3)[C@@H](O)[C@H]1O` [Compound 112], the IC50 was 33.1 nM in assay [1] and ~1780 nM in assay [2].

Consider `Nc1ncnc2c1ccn2[C@@H]1O[C@H](CN2CCCCC23CCNCC3)[C@@H](O)[C@H]1O` [Compound 113], for which the IC50 is 8.13 nM in assay [1] and 145 nM in assay [2].

Regarding `Nc1ncnc2c1ccn2[C@@H]1O[C@H](CN2CCCC3(CCNCC3)C2)[C@@H](O)[C@H]1O` [Compound 114], the figures for the IC50 in assay [1] and in assay [2] were 33.9 nM and ~1070 nM, respectively.

As to `CN1CCC2(CC1)CC(F)(F)CN2CC1C[C@@H](n2ccc3c(N)ncnc32)[C@H](O)[C@@H]1O` (some centres unmarked) [Compound 123], the IC50 in assay [1] was 22.4 nM; in assay [2] it was 162 nM.

In the case of `Nc1ncnc2c1ccn2[C@@H]1C[C@H](CN2CCCC23CCNCC3)[C@@H](O)[C@H]1O` [Compound 124], the figures for the IC50 in assay [1] and in assay [2] were 27.5 nM and 447 nM, respectively.

Take `CN1CCC2(CCCN2CC2C[C@@H](n3ccc4c(N)ncnc43)[C@H](O)[C@@H]2O)CC1` (some centres unmarked) [Compound 125]: the values for the IC50 in assay [1] and in assay [2] were 148 nM and ~871 nM, respectively.

With `Nc1ncnc2c1ccn2[C@@H]1C[C@H](CN2CC(F)(F)CC23CCNCC3)[C@@H](O)[C@H]1O` [Compound 126], the IC50 in assay [1] was 17.4 nM; in assay [2], 44.7 nM.

As to `NCC[C@@H]1CCCN1C[C@H]1CN(C2C=Cc3c(N)ncnc32)[C@H](O)[C@@H]1O` (some centres unmarked) [Compound 127], the IC50 in assay [1] is 61.7 nM; in assay [2], ~2750 nM.

In the case of `NCC[C@@H]1CC(F)(F)CCN1C[C@H]1O[C@@H](c2ccc3c(N)ncnn23)[C@H](O)[C@@H]1O` [Compound 128], the values for the IC50 in assay [1] and in assay [2] were 204 nM and > 10000 nM, respectively.

Regarding `CN(C)C[C@@H]1COCCN1C[C@H]1O[C@@H](c2ccc3c(N)ncnn23)[C@H](O)[C@@H]1O` [Compound 129], the IC50 in assay [1] was > 10000 nM; in assay [2], > 20000 nM.

As to `Nc1ncnn2c([C@@H]3O[C@H](CN4CCOC[C@H]4CN4CCC(F)(F)C4)[C@@H](O)[C@H]3O)ccc12` [Compound 130], the IC50 in assay [1] was > 10000 nM; in assay [2], > 20000 nM.

With `Nc1ncnn2c([C@@H]3O[C@H](CN4CCOC[C@H]4CN4CCCC4)[C@@H](O)[C@H]3O)ccc12` [Compound 131], the IC50 in assay [1] was > 10000 nM; in assay [2], > 20000 nM.

As to `NC[C@@H]1COCCN1C[C@H]1O[C@@H](c2ccc3c(N)ncnn23)[C@H](O)[C@@H]1O` [Compound 132], the figures for the IC50 in assay [1] and in assay [2] were 1550 nM and > 20000 nM, respectively.

`Nc1ncnn2c([C@@H]3O[C@H](CN4CCCC45CCNCC5)[C@@H](O)[C@H]3O)ccc12` [Compound 133]: the IC50 in assay [1] was 28.8 nM; in assay [2], ~1050 nM.

As for `NCC[C@@H]1COCCN1C[C@H]1O[C@@H](c2ccc3c(N)ncnn23)[C@H](O)[C@@H]1O` [Compound 134], the IC50 in assay [1] is 200 nM; in assay [2], 8910 nM.

With `CN1CCC2(CCCN2C[C@H]2O[C@@H](c3ccc4c(N)ncnn34)[C@H](O)[C@@H]2O)CC1` [Compound 135], the IC50 in assay [1] is 617 nM; in assay [2], ~1050 nM.

On to `Nc1ncnn2c([C@@H]3O[C@H](CN4CC(F)(F)CC45CCNCC5)[C@@H](O)[C@H]3O)ccc12` [Compound 136], for which the IC50 in assay [1] was 50.1 nM; in assay [2], ~263 nM.

Take `Nc1ncnn2c([C@@H]3O[C@H](CN4C(C(F)(F)F)CCC45CCNCC5)[C@@H](O)[C@H]3O)ccc12` (some centres unmarked) [Compound 137]: the IC50 in assay [1] was 1150 nM; in assay [2] it was > 10000 nM.

With `Nc1ncnn2c([C@@H]3O[C@H](CN4CCCC45CCN(CCc4ccc(F)cc4)CC5)[C@@H](O)[C@H]3O)ccc12` [Compound 139], the IC50 in assay [1] is 3240 nM; in assay [2] it was 1660 nM.

For `N#CCN1CCC2(CCCN2C[C@H]2O[C@@H](c3ccc4c(N)ncnn34)[C@H](O)[C@@H]2O)CC1` [Compound 140], the IC50 in assay [1] is 295 nM; in assay [2], ~3020 nM.

In the case of `Nc1ncnn2c([C@@H]3O[C@H](CN4CCCC45CCN(CC(F)(F)F)CC5)[C@@H](O)[C@H]3O)ccc12` [Compound 141], the IC50 in assay [1] and in assay [2] was > 10000 nM each time.

Regarding `CCN1CCC2(CCCN2C[C@H]2O[C@@H](c3ccc4c(N)ncnn34)[C@H](O)[C@@H]2O)CC1` [Compound 142], the IC50 was 1950 nM in assay [1] and > 10000 nM in assay [2].

`Nc1ncnn2c([C@@H]3O[C@H](CN4CC(F)(F)CC45CCN(CCc4ccc(F)cc4)CC5)[C@@H](O)[C@H]3O)ccc12` [Compound 143]: the IC50 in assay [1] was 7240 nM; in assay [2] it was 1580 nM.

`N#CCN1CCC2(CC1)CC(F)(F)CN2C[C@H]1O[C@@H](c2ccc3c(N)ncnn23)[C@H](O)[C@@H]1O` [Compound 144]: the IC50 in assay [1] was 447 nM; in assay [2], ~933 nM.

Turning to `Nc1ncnn2c([C@@H]3O[C@H](CN4CC(F)(F)CC45CCN(CC(F)(F)F)CC5)[C@@H](O)[C@H]3O)ccc12` [Compound 145], the IC50 in assay [1] and in assay [2] was > 10000 nM in each case.

Consider `CCN1CCC2(CC1)CC(F)(F)CN2C[C@H]1O[C@@H](c2ccc3c(N)ncnn23)[C@H](O)[C@@H]1O` [Compound 146], for which the IC50 in assay [1] is 3980 nM; in assay [2], 4680 nM.

`CN1CCC2(CC1)CC(F)(F)CN2C[C@H]1O[C@@H](c2ccc3c(N)ncnn23)[C@H](O)[C@@H]1O` [Compound 147]: the IC50 in assay [1] was 186 nM; in assay [2] it was 603 nM.

As for `CN(C)CC[C@@H]1CCCN1C[C@H]1O[C@@H](c2ccc3c(N)ncnn23)[C@H](O)[C@@H]1O` [Compound 148], the IC50 in assay [1] was 1260 nM; in assay [2] it was > 10000 nM.

Take `Nc1ncnn2c([C@@H]3O[C@H](CN4CCC[C@H]4CCN4CCOCC4)[C@@H](O)[C@H]3O)ccc12` [Compound 150]: the IC50 in assay [1] and in assay [2] was > 10000 nM throughout.

Consider `CN(C)C[C@@H]1CC(F)(F)CN1C[C@H]1O[C@@H](c2ccc3c(N)ncnn23)[C@H](O)[C@@H]1O` [Compound 151], for which the IC50 was 5500 nM in assay [1] and ~6170 nM in assay [2].

On to `CN(C)CC[C@@H]1CC(F)(F)CN1C[C@H]1O[C@@H](c2ccc3c(N)ncnn23)[C@H](O)[C@@H]1O` [Compound 152], for which the figures for the IC50 in assay [1] and in assay [2] were 2950 nM and 4070 nM, respectively.

Take `Nc1ncnn2c([C@@H]3O[C@H](CN4CC(F)(F)C[C@H]4CCN4CCOCC4)[C@@H](O)[C@H]3O)ccc12` [Compound 154]: the IC50 in assay [1] and in assay [2] was > 10000 nM in each case.

With `Nc1ncnn2c([C@@H]3O[C@H](CN4CC(F)(F)C[C@H]4CCN4CCCC4)[C@@H](O)[C@H]3O)ccc12` [Compound 155], the values for the IC50 in assay [1] and in assay [2] were 2510 nM and > 10000 nM, respectively.

Take `NCC[C@@H]1CC(F)(F)CN1C[C@H]1O[C@@H](c2ccc3c(N)ncnn23)[C@H](O)[C@@H]1O` [Compound 156]: the IC50 in assay [1] is 26.3 nM; in assay [2], 1050 nM.

These data come from patent US10898504B2, “Substituted nucleoside analogues for use as PRMT5 inhibitors” (Janssen Pharmaceutica NV, priority 2016, dated 2021).
